Measured values published in patent US11406622B2, “Glaucocalyxin a derivative, pharmaceutically acceptable salt thereof, or pharmaceutical composition thereof and uses thereof in preparation of drugs for treating psoriasis” (SUZHOU PHARMAVAN CO., LTD., priority 2017, dated 2022).
Structures can show the parent of a compound that is named as a salt.

test system: human keratinocytes (HaCaT); test: Effect on proliferation of human keratinocytes, CCK-8, 48 h (Example 5); format: cell-based; details: 48 hours of treatment
Experimental: In this example, the glaucocalyxin A derivatives of the present application, or pharmaceutically acceptable salts thereof, were examined for the effect on the proliferation of human keratinocytes. In this example, the glaucocalyxin A derivatives as shown in Table 1 were examined by using the following procedure. A cell suspension was prepared and inoculated into three 96-well plates at 8000 cells in a volume of 150 μl per well, which were then cultured overnight in an incubator at 37° C., 5% CO2. On the next day, 50 μl of test compound solution at different concentrations was added to each well. Triplicate wells were set up for each concentration. A vehicle control group (without compound), a cell control group (without compound and vehicle), and a blank medium control group (without cells, a well for null adjustment) were also set up, and cultured for an additional 48 hours. CCK-8 staining working solution was added at 110 μL per well, and cultured for additional 1-4 h. At the end of the culture, the absorbances were measured at 450 nm (OD450 nm) on a Bio-Tek enzyme-linked immunosorbent assay. The results were expressed as the mean OD450 nm value of triplicates±standard deviation (x±sd). The Origin 7.0 was used for plotting and analysis. A fitting curve was obtained by plotting the OD value of each group against the logarithmic concentration of the test compound, and then the IC50 value was determined.

Row | SMILES | IC50
1 | C=C1C(=O)C23C(O)CC4C(C)(C)c5nc(N)sc5CC4(C)C2CCC1C3O (stereo not shown) [Compound 01] | 3.21 µM
2 | C=C1C(=O)C23C(O)CC4C(C)(C)c5nc(N)sc5CC4(C)C2CCC1C3O (stereo not shown) [Compound 02] | 3.52 µM
3 | C=C1C(=O)C23C(O)CC4C(C)(C)c5nc(N)sc5CC4(C)C2CCC1C3O (stereo not shown) [Compound 03] | 4.02 µM
4 | C=C1C(=O)C23C(O)CC4C(C)(C)c5nc(N)sc5CC4(C)C2CCC1C3O (stereo not shown) [Compound 04] | 4.1 µM
5 | C=C1C(=O)C23C(O)CC4C(C)(C)c5nc(N)sc5CC4(C)C2CCC1C3O (stereo not shown) [Compound 05] | 3.45 µM
6 | C=C1C(=O)C23C(O)CC4C(C)(C)c5nc(N)sc5CC4(C)C2CCC1C3O (stereo not shown) [Compound 06] | 2.91 µM
7 | C=C1C(=O)C23C(O)CC4C(C)(C)c5nc(N)sc5CC4(C)C2CCC1C3O (stereo not shown) [Compound 07] | 3.28 µM
8 | C=C1C(=O)C23C(O)CC4C(C)(C)c5nc(N)sc5CC4(C)C2CCC1C3O (stereo not shown) [Compound 08] | 2.85 µM
9 | C=C1C(=O)C23C(O)CC4C(C)(C)c5nc(N)sc5CC4(C)C2CCC1C3O (stereo not shown) [Compound 09] | 2.42 µM
10 | C=C1C(=O)C23C(O)CC4C(C)(C)c5nc(N)sc5CC4(C)C2CCC1C3O (stereo not shown) [Compound 10] | 3.86 µM
11 | C=C1C(=O)C23C(O)CC4C(C)(C)c5nc(N)sc5CC4(C)C2CCC1C3O (stereo not shown) [Compound 11] | 3 µM
12 | C=C1C(=O)C23C(O)CC4C(C)(C)c5nc(NN)sc5CC4(C)C2CCC1C3O (stereo not shown) [Compound 12] | 1.21 µM
13 | C=C1C(=O)C23C(O)CC4C(C)(C)c5nc(Nc6ccncc6)sc5CC4(C)C2CCC1C3O (stereo not shown) [Compound 13] | 3.62 µM
14 | C=C1C(=O)C23C(O)CC4C(C)(C)c5nc(NCCC)sc5CC4(C)C2CCC1C3O (stereo not shown) [Compound 14] | 7 µM
15 | C=C1C(=O)C23C(O)CC4C(C)(C)c5nc(NC(C)C)sc5CC4(C)C2CCC1C3O (stereo not shown) [Compound 15] | 6.95 µM
16 | C=C1C(=O)C23C(O)CC4C(C)(C)c5nc(NCCCC)sc5CC4(C)C2CCC1C3O (stereo not shown) [Compound 16] | 8.88 µM
17 | C=C1C(=O)C23C(O)CC4C(C)(C)c5nc(NCCCCCC)sc5CC4(C)C2CCC1C3O (stereo not shown) [Compound 17] | 4.29 µM
18 | C=CCNc1nc2c(s1)CC1(C)C(CC(O)C34C(=O)C(=C)C(CCC13)C4O)C2(C)C (stereo not shown) [Compound 18] | 7.24 µM
19 | C=C1C(=O)C23C(O)CC4C(C)(C)c5nc(NC6CCCCC6)sc5CC4(C)C2CCC1C3O (stereo not shown) [Compound 19] | 8.16 µM
20 | C=C1C(=O)C23C(O)CC4C(C)(C)c5nc(Nc6ccccc6)sc5CC4(C)C2CCC1C3O (stereo not shown) [Compound 20] | 9.31 µM
21 | C=C1C(=O)C23C(O)CC4C(C)(C)c5nc(NCc6ccccc6)sc5CC4(C)C2CCC1C3O (stereo not shown) [Compound 21] | 9.2 µM
22 | C=C1C(=O)C23C(O)CC4C(C)(C)c5nc(N(C)C)sc5CC4(C)C2CCC1C3O (stereo not shown) [Compound 22] | 0.95 µM
23 | Br.C=C1C(=O)C23C(O)CC4C(C)(C)c5nc(NC)sc5CC4(C)C2CCC1C3O (stereo not shown) [Compound 24] | 3.17 µM
24 | C=C1C(=O)C23C(O)CC4C(C)(C)c5nc(NCC)sc5CC4(C)C2CCC1C3O (stereo not shown) [Compound 25] | 5.49 µM
25 | C=C1C(=O)C23C(O)CC4C(C)(C)c5nc(NCCC)sc5CC4(C)C2CCC1C3O (stereo not shown) [Compound 26] | 7.86 µM
26 | C=C1C(=O)C23C(O)CC4C(C)(C)c5nc(NC(C)C)sc5CC4(C)C2CCC1C3O (stereo not shown) [Compound 27] | 6.92 µM
27 | C=C1C(=O)C23C(O)CC4C(C)(C)c5nc(N(CC)CC)sc5CC4(C)C2CCC1C3O (stereo not shown) [Compound 28] | 1.26 µM
28 | C=C1C(=O)C23C(O)CC4C(C)(C)c5nc(N(CCC)CCC)sc5CC4(C)C2CCC1C3O (stereo not shown) [Compound 29] | 1.85 µM
29 | C=C1C(=O)C23C(O)CC4C(C)(C)c5nc(N(C(C)C)C(C)C)sc5CC4(C)C2CCC1C3O (stereo not shown) [Compound 30] | 2.37 µM

same assay, conditions: Homo sapiens, 48 hours of treatment

Row | SMILES | IC50
30 | C=C1C(=O)[C@@]23[C@H](O)C[C@@H]4C(C)(C)C(=O)CC[C@@]4(C)[C@@H]2CC[C@@H]1[C@H]3O [Compound 31, glaucocalyxin A] | 30.5 µM
31 | CN(C)C[C@@H]1C(=O)C23C(O)C1CCC2[C@]1(C)CCC(=O)C(C)(C)[C@H]1C[C@H]3O (stereo partly shown) [Compound 32, dimethylamino glaucocalyxin A hydrochloride, reference compound] | 18.7 µM

test system: BALB/c mice; test: Acute toxicity in BALB/c mice, single tail-vein injection (Example 9); format: in vivo, mouse; details: single intravenous injection, 10 mg/kg
From the text: In this example, Compound 23 and Compound 24 were detected for their acute toxicities, and the detection method was as follows.
Experimental procedure: 40 BALB/c mice, half male and half female, were randomly divided into groups after weight measurement. The weight of an individual should be within the range of the average body weight±20%. Animals should be allowed to acclimatize to the environment for at least 5 days before the test, and healthy (if female, it must be un-pregnant) mice were selected as test animals. The main inspections during the acclimatization period included: whether it met the quality indicators required at the time of ordering; general state check; and whether the weight reached the weight range required by the test. Unqualified abnormal animals were not included in this test. A single tail-vein injection was administrated to the mice at a low, medium, or high dose, which was 5 mg/kg, 10 mg/kg, or 40 mg/kg respectively according to a blank preparation pre-test. An equal volume of vehicle was intravenously injected to establish a control group.
Mice were observed once respectively at 0 to 2 hours and 4 to 6 hours after each administration. If toxic symptoms occurred, the number of observations could be increased. (2) Gross anatomy observation: All the surviving mice in each group were dissected and observed on the 8th day of the experiment. The abnormal organs and tissues found in the observation of administration sites and in the gross anatomy observation that might be related to the test samples were photographed and recorded. (3) Disposal of dying animals: The state of the mouse and the observation time were recorded, and the body weight was measured. (4) Disposal of dead animals: The time of death or the time when the death was found was recorded, the body weight was measured, and then the dissection was quickly performed for gross observation to speculate the cause of death.

Row | SMILES | animals that died
32 | Br.C=C1C(=O)C23C(O)CC4C(C)(C)c5nc(NC)sc5CC4(C)C2CCC1C3O (stereo not shown) [Compound 24] | All animals

test system: mouse spleen lymphocytes; test: ConA-induced proliferation of mouse spleen lymphocytes, MTT (Example 8); format: cell-based; details: Table 4, 0.001 μg/mL, 48 h, 5 μg/mL ConA
Experimental: In this example, the glaucocalyxin A derivatives and pharmaceutically acceptable salts thereof were detected for the effect thereof on ConA-induced proliferation of mouse spleen lymphocytes.
2×10^7/mL cell suspension was prepared and a 5 μg/μL ConA stock solution was added thereto at a final concentration of 5 μg/mL. The resulting mixture was inoculated into a 96-well culture plate at 0.1 mL per well. Then 0.1 mL of test compound at different concentrations was added to each well. Triplicate or quadruplicate wells were set up for each group, and a vehicle control group (without compound), a stimulant control group (with ConA, without compound, and without vehicle), a cell control group (without ConA, without compound, and without vehicle), and a blank medium control group (without cells, a well for null adjustment) were also set up, and cultured at 37° C., 5% CO2 for 48 h. MTT solution at 5 mg/mL was added at 20 μl per well, and cultured for an additional 4 hours. The culture plate was taken out and centrifuged at 1000 rpm for 10 min. The supernatant of each well was aspirated, and 100 μL of SDS cell lysis solution was added to each well, and cultured overnight. On the next day, the absorbance at 550 nm (OD550nm) was measured on an enzyme-linked immunoassay analyzer. The results were expressed as the mean OD550nm value of the triplicates or quadruplicates±standard deviation (x±sd). SPSS software version 17.0 was used for statistical analysis of the mean values, that is, the vehicle group was compared with the stimulant group, and the test group of each compound concentration was compared with the corresponding vehicle control group. The cell survival rate of each group was calculated according to the mean value for the compound treatment group and the mean value for the vehicle control group, that is, the cell survival rate (%)=the mean value for the compound treatment group/the mean value for the vehicle control group×100%. A linear regression equation was obtained by plotting the cell survival rate of each group against the concentration of the test compound, statistical test of the correlation coefficient was conducted, and then the IC50 value was determined.

Row | SMILES | OD550nm value (x ± sd) | Survival rate (%)
33 | CC(C)[C@]12O[C@H]1[C@@H]1O[C@]13[C@]1(O[C@H]1C[C@H]1C4=C(CC[C@@]13C)C(=O)OC4)[C@@H]2O [triptolide, reference compound] | 1.03 | 98%

same assay, conditions: Table 4, 0.1 μg/mL, 48 h, 5 μg/mL ConA

Row | SMILES | OD550nm value (x ± sd) | Survival rate (%)
34 | CC(C)[C@]12O[C@H]1[C@@H]1O[C@]13[C@]1(O[C@H]1C[C@H]1C4=C(CC[C@@]13C)C(=O)OC4)[C@@H]2O [triptolide, reference compound] | 0.42 | 40%

same assay, conditions: range of concentrations tested, 48 h, 5 μg/mL ConA

Row | SMILES | effect on ConA-induced proliferation of mouse spleen lymphocytes (in words)
35 | CC(C)[C@]12O[C@H]1[C@@H]1O[C@]13[C@]1(O[C@H]1C[C@H]1C4=C(CC[C@@]13C)C(=O)OC4)[C@@H]2O [triptolide, reference compound] | varying degrees of inhibition
